Tests used:
Type in all cases: in vivo
[1] = system: B cells present in the spleen; assay: Flow cytometry of B cells in the spleen of old mice; settings: 500 mg/kg p.o., 6 weeks
Description: The administering of β-NMN at 500 mg/kg, of α-NMN at 500 mg/kg and of the vehicle (water) was obtained via oral route (p.o) in the drinking water to young and old mice. The solutions were prepared by dissolving the powder of β-NMN or α-NMN in the vehicle (water). The study comprised 4 groups each having 6 mice: • Group 1: young mice (aged 10 weeks)+drinking water (vehicle) • Groupe 2: old mice (aged 15 months)+drinking water (vehicle) • Group 3: old mice (aged 15 months)+compound I-B (alpha-NMN) in the drinking water • Group 4: old mice (aged 15 months)+compound I-A (beta-NMN) in the drinking water The water consumption of the mice was assessed per cage every other day. The mice were weighed every week. The mice in Group 3 were sacrificed after 4 weeks for organ collection and characterisation of T cell function. The mice in Group 4 were sacrificed after 6 weeks for organ collection and characterisation of T cell function. On the day of sacrifice, the mice were anaesthetised with Vetoflurane (isoflurane) and blood samples were taken from the retroorbital sinus. The blood was incubated for 30 minutes at ambient temperature and then centrifuged at 1300 g for 10 minutes. After sacrificing of the mice, the spleen, thymus, and bone marrow of each animal were removed. The thymus was weighed and measured to evaluate involution thereof. For illustration purposes, photos of the thymus were taken on 5 animals per group. The thymus was divided into two parts: one part was treated with formol for histological examination. The second part was treated for characterisation of the immune cells. For characterisation of the cells, the thymus and spleen were crushed through a sieve of […] over a 50 mL tube with a syringe plunger. The bone marrow was rinsed with RPMI culture medium using a needle and syringe. The cell suspension was then centrifuged at 400 g for 5 minutes at 4° C. Lysis of the red blood cells was also performed before the cell count and use thereof for cytometry. The isolated cells of the spleen, thymus and bone marrow were marked with antibodies in accordance with the following tables to identify the proportion of effector and memory naive T and B cells. The following B cells of the spleen were also examined for characterisation as a function of the combination of proteins on the surface thereof: [table] Measured parameters: The results of flow cytometry are expressed in number or as a proportion of cells per organ. The weight of the thymus is expressed in grams.

[2] = system: CD4+ and CD8+ T cells (splenocytes); assay: Proliferation assay of CFSE-stained splenocytes from treated mice after stimulation; settings: splenocytes of treated old mice, anti-CD3/CD28 beads 96 h
Description: Proliferation assay: At D0+5 weeks, the splenocytes were marked with 2.5 μM CFSE and cultured at a concentration of 0.25×10^6 cells per well in a 96-well plate. The cells were stimulated with 2.5 μg InfluvacTetra® and incubated at 37° C. for 96 hours. The cells were then marked with anti-CD4 and CD8 antibodies and the proliferation of the T CD4+ and CD8+ cells was analysed by flow cytometry. The total splenocytes were stained with Carboxyfluorescein succinimidyl ester (CFSE) and stimulated with beads coated with anti-CD3/CD28 for 96 h. The mean fluorescence intensity of the CFSE was analysed and the ratio before and after stimulation was calculated.

thymocytes = assay: Flow cytometry of thymocytes from old mice; settings: 500 mg/kg p.o. in drinking water, 6 weeks (FIG. 3)
Description: The administering of β-NMN at 500 mg/kg, of α-NMN at 500 mg/kg and of the vehicle (water) was obtained via oral route (p.o) in the drinking water to young and old mice. The solutions were prepared by dissolving the powder of β-NMN or α-NMN in the vehicle (water). The study comprised 4 groups each having 6 mice: • Group 1: young mice (aged 10 weeks)+drinking water (vehicle) • Groupe 2: old mice (aged 15 months)+drinking water (vehicle) • Group 3: old mice (aged 15 months)+compound I-B (alpha-NMN) in the drinking water • Group 4: old mice (aged 15 months)+compound I-A (beta-NMN) in the drinking water The water consumption of the mice was assessed per cage every other day. The mice were weighed every week. The mice in Group 3 were sacrificed after 4 weeks for organ collection and characterisation of T cell function. The mice in Group 4 were sacrificed after 6 weeks for organ collection and characterisation of T cell function. On the day of sacrifice, the mice were anaesthetised with Vetoflurane (isoflurane) and blood samples were taken from the retroorbital sinus. The blood was incubated for 30 minutes at ambient temperature and then centrifuged at 1300 g for 10 minutes. […] The thymus was weighed and measured to evaluate involution thereof. […] Measured parameters: The results of flow cytometry are expressed in number or as a proportion of cells per organ. […]

NC(=O)c1ccc[n+]([C@@H]2O[C@H](COP(=O)([O-])O)[C@@H](O)[C@H]2O)c1 (stereo in doubt) [I-A, nicotinamide mononucleotide]
number of activated B cells in the spleen ([1]; compared with the other groups (FIG. 6B)): increase in the number of activated B cells | number of memory B cells in the spleen ([1]; compared with the other groups (FIG. 6C)): increase | number of germinal B cells in the spleen ([1]; compared with the other groups (FIG. 6D)): increase | number of B cells in the spleen ([1]; compared with the other groups of mice (FIG. 6A)): significantly increased | proliferation of CD4 cells ([2]; compared with the three other groups (FIG. 9A)): significant increase in the proliferation of CD4 and CD8 cells | proliferation of CD8 cells ([2]; compared with the three other groups (FIG. 9B)): significant increase in the proliferation of CD4 and CD8 cells | number of CD8+ thymocytes (thymocytes): increase in the number of CD8+ thymocytes
